Positions of bridges follow the written chain, without caps; N, C: chain ends. Non-standard residues stand in square brackets, D forms with d. Residues, ends and D or L forms follow the SMILES beside them. Phe(3,4,5-F3) = N[C@@H](Cc1cc(F)c(F)c(F)c1)C(=O)O; Phe(3,5-F2) = N[C@@H](Cc1cc(F)cc(F)c1)C(=O)O; Hyp = O=C(O)[C@@H]1C[C@@H](O)CN1
Tests used:
[1] = test system: subcutaneous U-87MG xenograft tumors; test: In vivo NIRF optical imaging, subcutaneous xenograft; parameters: species or system nude mice; conditions: for improvement in tumor targeting over LXY1: optical imaging, U-87MG glioblastoma xenograft model, data not shown
Excerpt: Halogen lamp light source was set to maximum.

[2] = target: T1, α3β1 integrin-expressing U-87MG glioblastoma cells (Homo sapiens, UniProt P26006); test: biochemical; format: binding; conditions: for Relative binding index: peptide 0.4 μM competing with 0.5 μM LXY1-biotin on U-87MG cells, relative to LXY1, greater RBI = higher affinity; for IC50: series of concentrations competing with 0.5 μM LXY1-biotin binding to U-87MG cells
T1 construct: we incubated U-87MG cells which express α3β1 integrin; endogenous in cells; host or cells: U-87MG human glioblastoma cells
Description: (§1) Confluent tumor cells (80-90 %) were dissociated with 0.05 % trypsin-EDTA and neutralized with culture medium. To determine the expression of α3 and β1 integrins, 1 μg of anti-α3 or anti-β1 antibody was mixed with 1 million cells for 30 min, followed by anti-mouse IgG-PE incubation and flow cytometry (Coulter XL-MCL). […] Then each sample was washed three times with 1 mL PBS containing 1 % FBS. Samples thereafter were incubated with a 1:500 dilution of streptavidin-PE (1 mg/mL) for 30 min on ice followed by a single wash with 1 mL of PBS containing 1 % FBS. Finally, the samples in PBS were analyzed by flow cytometry. […] The mixture was then incubated with cancer cells followed by streptavidin-PE. Samples were analyzed by flow cytometry, and mean fluorescence intensity (MFI) was decided for each individual sample. […] For blocking experiments, the samples were incubated with non-biotinylated LXY30, anti-α3, or anti-β1 antibody for 30 min prior to incubation with 20 nM biotinylated LXY30.

[3] = target: T2, α3 subunit of α3β1 integrin on U-87MG cells (Homo sapiens, UniProt P26006); test: Blocking of LXY30-biotin binding to U-87MG cells, flow cytometry; conditions: 100 μM free peptide pre-incubated 30 min before 20 nM LXY30-biotin
T2 construct: we incubated U-87MG cells which express α3β1 integrin; endogenous in cells; host or cells: U-87MG human glioblastoma cells
Description: as §1, with “(80–90” for “(80-90”
Fig. 2 Synthesis and chemical structures of several peptide conjugates and binding specificity of LXY30 to U-87MG cells. The synthesis and chemical structures of peptide conjugates LXY30-biotin, LXY30-FITC, and scrambled-LXY30-FITC (S-LXY30-FITC) used for in vitro and in vivo characterization, as well as imaging studies were shown (a). […]

H3255 = test: LXY30 binding by flow cytometry; parameters: species or system human; conditions: 1µM LXY30; H3255, lung, adenocarcinoma
Description: as §1, with “(80–90” for “(80-90”
(§2) *(MFI W/ LXY30)/ (MFI W/O LXY30): Mean Fluorescence Intensity of cells incubated with 1µM LXY30 divided by Mean Fluorescence Intensity of cells without incubation with LXY30.
(§3) Mean Fluorescence Intensity (MFI) was used as the quantitative measurement. The binding strength was grouped into five categories based on the value. “0”: 1 “1+”: 1.1~4.9 “2+”: 5~19.9 “3+”: 20~79.9 “4+”: > or = 80-fold

H2228 = test: LXY30 binding by flow cytometry; parameters: species or system human; conditions: 1µM LXY30; H2228, lung, adenocarcinoma
Description: as §1, with “(80–90” for “(80-90”
as §2, §3

H1975 = test: LXY30 binding by flow cytometry; parameters: species or system human; conditions: 1µM LXY30; H1975, lung, adenocarcinoma
Description: as §1, with “(80–90” for “(80-90”
as §2, §3

SKBR3 = test: LXY30 binding by flow cytometry; parameters: species or system human; conditions: 1µM LXY30; SKBR3, breast, HER2
Description: as §1, with “(80–90” for “(80-90”
as §2, §3

MDA-MB 231 = test: LXY30 binding by flow cytometry; parameters: species or system human; conditions: 1µM LXY30; MDA-MB 231, breast, basal like
Description: as §1, with “(80–90” for “(80-90”
as §2, §3

BT-20 = test: LXY30 binding by flow cytometry; parameters: species or system human; conditions: 1µM LXY30; BT-20, breast, basal like
Description: as §1, with “(80–90” for “(80-90”
as §2, §3

T47D = test: LXY30 binding by flow cytometry; parameters: species or system human; conditions: 1µM LXY30, breast, luminal A
Description: as §1, with “(80–90” for “(80-90”
as §2, §3

H1650 = test: LXY30 binding by flow cytometry; parameters: species or system human; conditions: 1µM LXY30; H1650, lung, bronchoalveolar
Description: as §1, with “(80–90” for “(80-90”
as §2, §3

A549 = test: LXY30 binding by flow cytometry; parameters: species or system human; conditions: 1µM LXY30; A549, lung, adenocarcinoma
Description: as §1, with “(80–90” for “(80-90”
as §2, §3

MCF7 = test: LXY30 binding by flow cytometry; parameters: species or system human; conditions: 1µM LXY30; MCF7, breast, luminal A
Description: as §1, with “(80–90” for “(80-90”
as §2, §3

HCC827 = test: LXY30 binding by flow cytometry; parameters: species or system human; conditions: 1µM LXY30; HCC827, lung, adenocarcinoma
Description: as §1, with “(80–90” for “(80-90”
as §2, §3

H460 = test: LXY30 binding by flow cytometry; parameters: species or system human; conditions: 1µM LXY30; H460, lung, large cell
Description: as §1, with “(80–90” for “(80-90”
as §2, §3

[4] = In vitro stability assay in human plasma; format: in vitro ADME; conditions: 90% human plasma (EDTA, healthy donors); 200 µM in 90% human plasma, 37°C, up to 8 days, RP-HPLC; t1/2=1/kobs·ln(2)
Description: Figure S3. The in vitro stability of LXY30 in human plasma. LXY30 was incubated with 90% human plasma from healthy donor at 37°C for up to 8 days. The peptide concentrations were determined by integration of the LXY30 peak (area) from reversed-phase high-performance liquid chromatography (RP-HPLC) chromatograms at UV 214 nm. The half-life of LXY30 in the plasma was calculated as 16.0 days using the formula t1/2=1/kobs·ln(2). Assays were performed in triplicate.
Human plasma was separated from the peripheral blood collected in the EDTA-containing blood collection tube from healthy donors. One hundred microliters of LXY30 solution (2 mM in water) was mixed with 900 µL of plasma (final concentration of LXY30 was 200 µM) and incubated at 37°C under sterile conditions. […] A control plasma sample without LXY30 but treated in the same manner was also analyzed. […]
RP-HPLC analysis was performed on the Waters 2996 HPLC system equipped with a Luna® analytical column from Phenomenex (5 µm, C18, 100 A°, 250 x 4.6 mm). […] The relative concentrations of the remaining LXY30 were analyzed by the integration of the absorbance at 214 nm (area).
Half-life (t1/2) for LXY30 in the plasma solution was calculated from plots of the natural logarithm of the residual concentration against time using the formula t1/2=1/kobs·ln(2), where kobs is the apparent first order rate constant for the observed degradation.

T1 sequence (P26006 33-872 limits assumed): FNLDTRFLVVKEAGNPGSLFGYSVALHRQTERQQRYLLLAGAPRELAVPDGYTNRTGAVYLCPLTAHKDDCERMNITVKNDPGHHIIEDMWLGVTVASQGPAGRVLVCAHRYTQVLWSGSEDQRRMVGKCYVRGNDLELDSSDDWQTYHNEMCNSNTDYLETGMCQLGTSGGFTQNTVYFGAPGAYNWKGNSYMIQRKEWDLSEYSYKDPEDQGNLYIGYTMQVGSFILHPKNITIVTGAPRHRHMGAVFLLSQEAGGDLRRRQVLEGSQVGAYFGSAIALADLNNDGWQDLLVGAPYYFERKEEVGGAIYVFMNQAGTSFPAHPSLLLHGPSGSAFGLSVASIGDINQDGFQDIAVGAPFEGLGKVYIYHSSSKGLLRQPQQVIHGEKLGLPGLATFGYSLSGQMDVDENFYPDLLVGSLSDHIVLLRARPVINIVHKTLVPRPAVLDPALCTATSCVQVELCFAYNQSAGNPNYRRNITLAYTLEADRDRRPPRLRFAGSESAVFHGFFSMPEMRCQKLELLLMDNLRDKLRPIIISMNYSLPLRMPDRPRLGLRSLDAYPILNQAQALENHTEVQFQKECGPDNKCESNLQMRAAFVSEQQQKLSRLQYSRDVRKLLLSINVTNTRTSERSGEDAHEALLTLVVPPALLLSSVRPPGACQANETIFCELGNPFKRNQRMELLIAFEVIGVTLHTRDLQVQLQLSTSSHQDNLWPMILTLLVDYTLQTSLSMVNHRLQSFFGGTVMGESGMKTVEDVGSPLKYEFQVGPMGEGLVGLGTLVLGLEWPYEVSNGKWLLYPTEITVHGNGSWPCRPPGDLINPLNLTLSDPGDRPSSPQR
T1 sequence (P26006 873-1051 partner limits assumed): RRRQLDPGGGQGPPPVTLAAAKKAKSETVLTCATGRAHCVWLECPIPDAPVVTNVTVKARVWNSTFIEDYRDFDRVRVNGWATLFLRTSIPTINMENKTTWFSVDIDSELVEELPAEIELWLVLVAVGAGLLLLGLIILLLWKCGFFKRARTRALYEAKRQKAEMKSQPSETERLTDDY
T1 sequence (P05556 21-798 partner): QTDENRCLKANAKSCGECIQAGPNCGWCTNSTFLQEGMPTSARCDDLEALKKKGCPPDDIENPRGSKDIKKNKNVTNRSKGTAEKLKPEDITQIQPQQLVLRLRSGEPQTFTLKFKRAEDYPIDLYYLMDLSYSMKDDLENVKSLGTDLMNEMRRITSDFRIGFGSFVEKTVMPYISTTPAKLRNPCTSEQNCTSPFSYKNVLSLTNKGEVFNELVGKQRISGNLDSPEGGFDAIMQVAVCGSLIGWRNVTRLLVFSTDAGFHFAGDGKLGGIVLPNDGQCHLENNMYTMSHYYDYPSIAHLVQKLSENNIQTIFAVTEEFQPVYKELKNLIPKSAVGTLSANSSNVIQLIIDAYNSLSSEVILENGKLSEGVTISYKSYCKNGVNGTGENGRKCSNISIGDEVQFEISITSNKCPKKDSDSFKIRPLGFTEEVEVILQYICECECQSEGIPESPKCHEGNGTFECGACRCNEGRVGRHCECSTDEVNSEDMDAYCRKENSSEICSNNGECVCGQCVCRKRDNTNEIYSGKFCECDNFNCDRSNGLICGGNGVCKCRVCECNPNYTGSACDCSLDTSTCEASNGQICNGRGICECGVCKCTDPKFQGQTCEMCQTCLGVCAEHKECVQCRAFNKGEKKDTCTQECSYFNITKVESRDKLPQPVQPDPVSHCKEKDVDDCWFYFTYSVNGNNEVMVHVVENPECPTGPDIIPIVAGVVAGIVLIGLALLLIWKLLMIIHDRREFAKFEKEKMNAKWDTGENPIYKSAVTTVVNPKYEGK
T2 sequence (P26006 33-872 limits assumed): as the sequence (P26006 33-872 limits assumed) above
T2 sequence (P26006 873-1051 partner limits assumed): as the sequence (P26006 873-1051 partner limits assumed) above
T2 sequence (P05556 21-798 partner): as the sequence (P05556 21-798 partner) above

NC(=O)C[C@@H]1NC(=O)[C@@H]2C[C@@H](O)CN2C(=O)CNC(=O)[C@H](Cc2cc(F)cc(F)c2)NC(=O)CNC(=O)[C@@H](CC(=O)O)NC(=O)[C@H](N)CSSC[C@H](C(N)=O)NC1=O [LXY4, cdG-Phe(3,5-diF)-G-Hyp-Nc] (H-[dC][dD]G[Phe(3,5-F2)]G[Hyp]N[dC]-NH2; disulfide 1-8; N-terminus assumed)
improvement in tumor targeting over LXY1 [1]: did not show improvement | Relative binding index [2]: 1.36 ± 0.11 | IC50 [2]: 410 ± 30 nM

N=C(N)NCCC[C@H](NC(=O)[C@H]1CSSC[C@@H](N)C(=O)N[C@H](CC(=O)O)C(=O)NCC(=O)N[C@@H](Cc2cc(F)c(F)c(F)c2)C(=O)NCC(=O)N2C[C@H](O)C[C@H]2C(=O)N[C@@H](CC(N)=O)C(=O)N1)C(N)=O [LXY7] (H-[dC][dD]G[Phe(3,4,5-F3)]G[Hyp]N[dC]R-NH2; disulfide 1-8; N-terminus assumed)
Relative binding index [2]: 1.62 ± 0.10 | IC50 [2]: 130 ± 12 nM

N=C(N)NCCC[C@H](NC(=O)[C@H]1CSSC[C@@H](N)C(=O)N[C@H](CC(=O)O)C(=O)NCC(=O)N[C@@H](Cc2cc(F)cc(F)c2)C(=O)NCC(=O)N2C[C@H](O)C[C@H]2C(=O)N[C@@H](CC(N)=O)C(=O)N1)C(N)=O [LXY30, cdG-Phe(3,5-diF)-G-Hyp-NcR] (H-[dC][dD]G[Phe(3,5-F2)]G[Hyp]N[dC]R-NH2; disulfide 1-8; N-terminus assumed)
MFI of tumor, fold over LXY1 ([1]; tail vein, 1.8 nmol complex, ROI on xenograft tumor): 1.4 folds | blocking of LXY30-biotin binding by free peptide [3]: inhibited or prevented | fold higher binding affinity compared to LXY1 ([2]; U-87MG cells, from IC50 values): 44 fold | Relative binding index [2]: 1.68 ± 0.10 | IC50 [2]: 80 ± 10 nM | (MFI W/ LXY30)/ (MFI W/O LXY30) (H3255): 2+ (“2+”: 5~19.9) | (MFI W/ LXY30)/ (MFI W/O LXY30) (H2228): 4+ (“4+”: > or = 80-fold) | (MFI W/ LXY30)/ (MFI W/O LXY30) (H1975): 4+ (“4+”: > or = 80-fold) | (MFI W/ LXY30)/ (MFI W/O LXY30) (SKBR3): 1+ (“1+”: 1.1~4.9) | (MFI W/ LXY30)/ (MFI W/O LXY30) (MDA-MB 231): 4+ (“4+”: > or = 80-fold) | (MFI W/ LXY30)/ (MFI W/O LXY30) (BT-20): 2+ (“2+”: 5~19.9) | (MFI W/ LXY30)/ (MFI W/O LXY30) (T47D): 1+ (“1+”: 1.1~4.9) | (MFI W/ LXY30)/ (MFI W/O LXY30) (H1650): 4+ (“4+”: > or = 80-fold) | (MFI W/ LXY30)/ (MFI W/O LXY30) (A549): 4+ (“4+”: > or = 80-fold) | (MFI W/ LXY30)/ (MFI W/O LXY30) (MCF7): 2+ (“2+”: 5~19.9) | (MFI W/ LXY30)/ (MFI W/O LXY30) (HCC827): 4+ (“4+”: > or = 80-fold) | (MFI W/ LXY30)/ (MFI W/O LXY30) (H460): 1+ (“1+”: 1.1~4.9) | half-life at 200 µM [4]: 16 days

cdG-Tyr(3-NO2)-G-Hyp-Nc [LXY3]
improvement in tumor targeting over LXY1 [1]: did not show improvement
